US20250304576A1 (Cancer Research Technology Limited, priority 2022, published 2025)
pKi: −log10 of the molar value.

What was measured:
Recombinant IKKβ = target: T1, Recombinant IKKβ (Homo sapiens, UniProt O14920); assay: DELFIA IKKβ kinase assay (apparent Ki, Cheng-Prusoff); type: biochemical; conditions: DELFIA assay (first line of an example)
T1 construct: purchased Millipore, Dundee, UK
T1 sequence (O14920 1-756): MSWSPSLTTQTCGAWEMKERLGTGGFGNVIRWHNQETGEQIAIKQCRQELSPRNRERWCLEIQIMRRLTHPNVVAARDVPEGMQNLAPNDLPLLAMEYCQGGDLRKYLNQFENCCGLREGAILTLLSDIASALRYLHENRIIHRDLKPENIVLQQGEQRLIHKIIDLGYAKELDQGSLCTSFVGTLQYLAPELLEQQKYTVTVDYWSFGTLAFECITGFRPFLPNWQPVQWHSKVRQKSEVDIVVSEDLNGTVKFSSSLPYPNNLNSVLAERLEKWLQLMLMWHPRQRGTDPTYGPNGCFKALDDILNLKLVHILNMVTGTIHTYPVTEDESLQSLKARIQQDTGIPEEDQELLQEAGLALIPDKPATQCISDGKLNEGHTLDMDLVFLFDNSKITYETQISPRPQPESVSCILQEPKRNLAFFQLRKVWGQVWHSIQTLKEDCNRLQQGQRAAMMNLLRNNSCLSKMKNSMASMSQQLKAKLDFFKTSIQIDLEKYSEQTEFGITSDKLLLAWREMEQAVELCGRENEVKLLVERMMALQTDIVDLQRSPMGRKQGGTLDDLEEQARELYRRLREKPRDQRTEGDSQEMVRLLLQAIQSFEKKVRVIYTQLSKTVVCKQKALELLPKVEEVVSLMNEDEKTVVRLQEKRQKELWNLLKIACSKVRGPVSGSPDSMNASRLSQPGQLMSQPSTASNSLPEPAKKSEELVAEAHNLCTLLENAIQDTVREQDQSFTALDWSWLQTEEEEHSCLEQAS
In short: (§1)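 DELFIA time-resolved fluorescence (ex 340/em 615 nm) quantified phosphorylation of a biotinylated IκB-α Ser32 peptide (0.375 μM) by 37 nM recombinant IKKα or IKKβ. Reactions used 40 μM ATP, Tris pH 7.5 buffer with MgCl2, DTT and BSA, 60 min at 30° C. Cheng-Prusoff equation gave apparent Ki.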

Recombinant IKKα = target: T2, Recombinant IKKα (Homo sapiens, UniProt O15111); assay: DELFIA IKKα kinase assay (apparent Ki, Cheng-Prusoff); type: biochemical; conditions: DELFIA assay (first line of an example)
T2 construct: purchased Millipore, Dundee, UK
T2 sequence (O15111 1-745): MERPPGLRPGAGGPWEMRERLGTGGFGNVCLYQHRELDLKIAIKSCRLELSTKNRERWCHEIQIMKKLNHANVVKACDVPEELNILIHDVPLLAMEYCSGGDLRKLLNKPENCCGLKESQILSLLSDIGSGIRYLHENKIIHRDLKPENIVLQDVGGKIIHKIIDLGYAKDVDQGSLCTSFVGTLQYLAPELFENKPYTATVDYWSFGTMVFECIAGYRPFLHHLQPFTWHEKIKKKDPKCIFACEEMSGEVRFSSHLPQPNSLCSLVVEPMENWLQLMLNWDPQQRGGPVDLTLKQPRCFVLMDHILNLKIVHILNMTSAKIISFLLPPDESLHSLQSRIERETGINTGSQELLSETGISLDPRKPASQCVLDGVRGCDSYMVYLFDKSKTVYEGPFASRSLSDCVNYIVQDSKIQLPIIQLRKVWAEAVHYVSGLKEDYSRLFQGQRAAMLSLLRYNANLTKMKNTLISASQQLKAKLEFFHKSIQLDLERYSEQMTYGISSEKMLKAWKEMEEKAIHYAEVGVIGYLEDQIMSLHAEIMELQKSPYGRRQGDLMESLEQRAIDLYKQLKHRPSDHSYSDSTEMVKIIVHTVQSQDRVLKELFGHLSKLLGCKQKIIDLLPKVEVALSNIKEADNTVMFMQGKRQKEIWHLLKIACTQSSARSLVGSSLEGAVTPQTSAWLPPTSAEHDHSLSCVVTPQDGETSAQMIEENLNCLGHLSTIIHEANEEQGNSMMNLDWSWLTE
In short: as §1

pKi (Recombinant IKKβ) | pKi (Recombinant IKKα) | Structure (SMILES)
7.05 | 7.64 | Nc1n[nH]c2ccc(-c3ccnc4[nH]c(C(=O)NCCc5ccccc5)cc34)cc12 [Example 238, 4-(3-Amino-1H-indazol-5-yl)-N-phenethyl-1H-pyrrolo[2,3-b]pyridine-2-carboxamide]
7.22 | 8.30 | Nc1n[nH]c2ccc(-c3ccnc4[nH]c(C(=O)NCCCc5ccccc5)cc34)cc12 [Example 239, 4-(3-Amino-1H-indazol-5-yl)-N-(3-phenylpropyl)-1H-pyrrolo[2,3-b]pyridine-2-carboxamide]
7.52 | 8.30 | COCCNC(=O)c1cc2c(-c3ccc4[nH]nc(N)c4c3)ccnc2[nH]1 [Example 240, 4-(3-Amino-1H-indazol-5-yl)-N-(2-methoxyethyl)-1H-pyrrolo[2,3-b]pyridine-2-carboxamide]
6.91 | 8.40 | NCCNC(=O)c1cc2c(-c3ccc4[nH]nc(N)c4c3)ccnc2[nH]1 [Example 241, 4-(3-Amino-1H-indazol-5-yl)-N-(2-aminoethyl)-1H-pyrrolo[2,3-b]pyridine-2-carboxamide]
6.42 | 8.10 | CN(C)CCNC(=O)c1cc2c(-c3ccc4[nH]nc(N)c4c3)ccnc2[nH]1 [Example 242, 4-(3-Amino-1H-indazol-5-yl)-N-(2-(dimethylamino)ethyl)-1H-pyrrolo[2,3-b]pyridine-2-carboxamide]
6.96 | 8.10 | Nc1n[nH]c2ccc(-c3ccnc4[nH]c(C(=O)NCCN5CCCCC5)cc34)cc12 [Example 244, 4-(3-Amino-1H-indazol-5-yl)-N-(2-(piperidin-1-yl)ethyl)-1H-pyrrolo[2,3-b]pyridine-2-carboxamide]
6.71 | 7.54 | CCCCN(CC)CCNC(=O)c1cc2c(-c3ccc4[nH]nc(N)c4c3)ccnc2[nH]1 [Example 245, 4-(3-Amino-1H-indazol-5-yl)-N-(2-(butyl(ethyl)amino)ethyl)-1H-pyrrolo[2,3-b]pyridine-2-carboxamide]
6.98 | 8.05 | CC(C)N(CCNC(=O)c1cc2c(-c3ccc4[nH]nc(N)c4c3)ccnc2[nH]1)C(C)C [Example 246, 4-(3-Amino-1H-indazol-5-yl)-N-(2-(diisopropylamino)ethyl)-1H-pyrrolo[2,3-b]pyridine-2-carboxamide]

The next lines start with the compound.

Structure (SMILES) | pKi (Recombinant IKKβ) | pKi (Recombinant IKKα)
CC(C)(C)C#Cc1cc(-c2ccnc(NS(C)(=O)=O)c2)cc2c(N)n[nH]c12 [Example 194, N-(4-(3-amino-7-(3,3-dimethylbut-1-yn-1-yl)-1H-indazol-5-yl)pyridin-2-yl)methanesulfonamide] | 5.31 | 6.43
CC(=O)Nc1cc(-c2cc(-c3ccncc3)c3[nH]nc(N)c3c2)ccn1 [Example 197, N-(4-(3-Amino-7-(pyridin-4-yl)-1H-indazol-5-yl)pyridin-2-yl)acetamide] | 7.15 | 7.60
Nc1n[nH]c2c(-c3ccoc3)cc(-c3ccnc4[nH]ccc34)cc12 [Example 199, 7-(Furan-3-yl)-5-(1H-pyrrolo[2,3-b]pyridin-4-yl)-1H-indazol-3-amine] | 7.35 | 8.22
Nc1n[nH]c2c(C#CCO)cc(-c3ccnc4[nH]ccc34)cc12 [Example 205, 3-(3-Amino-5-(1H-pyrrolo[2,3-b]pyridin-4-yl)-1H-indazol-7-yl)prop-2-yn-1-ol] | 5.51 | 6.44
Nc1n[nH]c2c(C#CC3(O)CCCC3)cc(-c3ccnc4[nH]ccc34)cc12 [Example 207, 1-((3-Amino-5-(1H-pyrrolo[2,3-b]pyridin-4-yl)-1H-indazol-7-yl)ethynyl)cyclopentan-1-ol] | 5.83 | 7.09
Nc1n[nH]c2c(C#CC3(O)CCCCC3)cc(-c3ccnc4[nH]ccc34)cc12 [Example 208, 1-((3-Amino-5-(1H-pyrrolo[2,3-b]pyridin-4-yl)-1H-indazol-7-yl)ethynyl)cyclohexan-1-ol] | 6.28 | 7.12
Nc1n[nH]c2c(C#CC3(O)CCCCCC3)cc(-c3ccnc4[nH]ccc34)cc12 [Example 209, 1-((3-Amino-5-(1H-pyrrolo[2,3-b]pyridin-4-yl)-1H-indazol-7-yl)ethynyl)cycloheptan-1-ol] | 5.63 | 6.82
Nc1n[nH]c2c(C#CCCN3CCCCC3)cc(-c3ccnc4[nH]ccc34)cc12 [Example 211, 7-(4-(Piperidin-1-yl)but-1-yn-1-yl)-5-(1H-pyrrolo[2,3-b]pyridin-4-yl)-1H-indazol-3-amine] | 6.45 | 7.72
Nc1n[nH]c2c(C#CCCCCN3CCCCC3)cc(-c3ccnc4[nH]ccc34)cc12 [Example 213, 7-(6-(Piperidin-1-yl)hex-1-yn-1-yl)-5-(1H-pyrrolo[2,3-b]pyridin-4-yl)-1H-indazol-3-amine] | 5.60 | 7.40
Nc1n[nH]c2c(C#CCCCC(=O)O)cc(-c3ccnc4[nH]ccc34)cc12 [Example 214, 6-(3-Amino-5-(1H-pyrrolo[2,3-b]pyridin-4-yl)-1H-indazol-7-yl)hex-5-ynoic acid] | 6.57 | 7.68
Nc1n[nH]c2c(C#CCCCCC(=O)O)cc(-c3ccnc4[nH]ccc34)cc12 [Example 215, 7-(3-Amino-5-(1H-pyrrolo[2,3-b]pyridin-4-yl)-1H-indazol-7-yl)hept-6-ynoic acid] | 6.59 | 7.42
Nc1n[nH]c2c(C#CCCOc3ccccc3)cc(-c3ccnc4[nH]ccc34)cc12 [Example 216, 7-(4-Phenoxybut-1-yn-1-yl)-5-(1H-pyrrolo[2,3-b]pyridin-4-yl)-1H-indazol-3-amine] | 7.09 | 7.80
Nc1n[nH]c2c(C#CCCCCOc3ccccc3)cc(-c3ccnc4[nH]ccc34)cc12 [Example 217, 7-(6-Phenoxyhex-1-yn-1-yl)-5-(1H-pyrrolo[2,3-b]pyridin-4-yl)-1H-indazol-3-amine] | 5.90 | 6.61
Nc1n[nH]c2ccc(-c3ccnc4[nH]c(Cc5ccccc5)cc34)cc12 [Example 223, 5-(2-Benzyl-1H-pyrrolo[2,3-b]pyridin-4-yl)-1H-indazol-3-amine] | 6.95 | 9.00
CC(C)(O)c1cc2c(-c3ccc4[nH]nc(N)c4c3)ccnc2[nH]1 [Example 225, 2-(4-(3-Amino-1H-indazol-5-yl)-1H-pyrrolo[2,3-b]pyridin-2-yl)propan-2-ol] | 6.38 | 7.59
CCC(O)(CC)c1cc2c(-c3ccc4[nH]nc(N)c4c3)ccnc2[nH]1 [Example 226, 3-(4-(3-Amino-1H-indazol-5-yl)-1H-pyrrolo[2,3-d]pyridin-2-yl)pentan-3-ol] | 6.04 | 7.02
COC(=O)c1cc2c(-c3ccc4[nH]nc(N)c4c3)ccnc2[nH]1 [Example 231, Methyl 4-(3-amino-1H-indazol-5-yl)-1H-pyrrolo[2,3-b]pyridine-2-carboxylate] | 6.38 | 8.05
CCOC(=O)c1cc2c(-c3ccc4[nH]nc(N)c4c3)ccnc2[nH]1 [Example 232, Ethyl 4-(3-amino-1H-indazol-5-yl)-1H-pyrrolo[2,3-b]pyridine-2-carboxylate] | 5.90 | 8.00
Nc1n[nH]c2ccc(-c3ccnc4[nH]c(C(=O)NC5CCCC5)cc34)cc12 [Example 235, 4-(3-Amino-1H-indazol-5-yl)-N-cyclopentyl-1H-pyrrolo[2,3-b]pyridine-2-carboxamide] | 7.15 | 8.22
CC(C)CCNC(=O)c1cc2c(-c3ccc4[nH]nc(N)c4c3)ccnc2[nH]1 [Example 237, 4-(3-amino-1H-indazol-5-yl)-N-isopentyl-1H-pyrrolo[2,3-b]pyridine-2-carboxamide] | 6.89 | 8.52
